For 9 compounds, GI50 results are on record in patent publication US10947215B2, “Heteroaryl compounds and their use as therapeutic drugs” (Dong-A Socio Holdings Co., Ltd., priority 2015, dated 2021).

For orientation: GI50 means the concentration at which growth is held to half of that of the control.

The subject of this experiment is Ba/F3-CDM cells (Ba/F3 transfected with CD8-MerTK). The experiment can be described thus: In cell MER kinase assay, Ba/F3-CDM cell proliferation without IL-3 (Celltiter-Glo, GI50). The settings on record: 48 hours, read-out: Cell growth inhibition (GI50). The format is cell-based, murine. The procedure: In Cell MER Kinase Assay Using BaF3 Cellular System
To establish an in cell kinase assay for MerTK kinase, the IL-3 dependent Ba/F3 cells of murine lymphoid origin was transfected with CD8-MerTK. […] For a routine cellular assay, Ba/F3-CDM cells were seeded at 2,000 cells per well in 384-well cell culture plate containing DMEM/10% FBS culture media and incubated for 24 hours before addition of compounds pre-diluted in culture media. Following compound treatment, cells were further incubated for 48 hours and the proliferation was measured. To discriminate a Ba/F3 growth inhibition by a specific inhibition of MerTK kinase following compound treatment vs growth inhibition due to a non-specific unintended cytotoxicity of compounds, we routinely carried out control sets of Ba/F3 cells in parallel that grown in IL3-supplemented growth media. In the presence of IL-3, the proliferation of Ba/F3 is no longer dependent on the MerTK activity. Cell growth and proliferation was measured with Celltiter-Glo™ system (Promega, USA) according to the manufacturer's instruction. The half-maximal growth inhibitory concentration (GI50) value was calculated with Prism6.0 software (GraphPad, USA).
A general note: In ATP-based viability assays light output follows the ATP content of the culture.

Turning to `CN1CCN(Cc2ccc(-c3ccc(CO[C@H]4CCC[C@@H]4NC(=O)c4nc(-c5cnn(C)c5)cnc4N)cc3)cc2)CC1` [Example 194, 3-amino-6-(1-methyl-1H-pyrazol-4-yl)-N-((1S,2S)-2-((4′-((4-methylpiperazin-1-yl)methyl)-[1,1′-biphenyl]-4-yl)methoxy)cyclopentyl)pyrazine-2-carboxamide], the GI50 was below 100 nM.

In the case of `CN1CCN(Cc2ccc(-c3ccc(CO[C@H]4CCC[C@@H]4NC(=O)c4cc(-c5cnn(C)c5)cnc4N)cc3)cc2F)CC1` [Example 195, 2-amino-N-((1S,2S)-2-((3′-fluoro-4′-((4-methylpiperazin-1-yl)-methyl)-[1,1′-biphenyl]-4-yl)methoxy)cyclopentyl)-5-(1-methyl-1H-pyrazol-4-yl)-nicotinamide], the GI50 was below 100 nM.

As for `CN1CCN(Cc2ccc(-c3ccc(CO[C@H]4CCC[C@@H]4NC(=O)c4cc(-c5cnn(C)c5)cnc4N)cc3)cc2C(F)(F)F)CC1` [Example 197, 2-amino-5-(1-methyl-1H-pyrazol-4-yl)-N-((1S,2S)-2-((4′-((4-methylpiperazin-1-yl)methyl)-3′-(trifluoromethyl)-[1,1′-biphenyl]-4-yl)methoxy)-cyclopentyl)nicotinamide], the GI50 was below 100 nM.

Consider `Cc1cc(-c2ccc(CO[C@H]3CCC[C@@H]3NC(=O)c3cc(-c4cnn(C)c4)cnc3N)cc2)ccc1CN1CCN(C)CC1` [Example 198, 2-amino-5-(1-methyl-1H-pyrazol-4-yl)-N-((1S,2S)-2-((3′-methyl-4′-((4-methylpiperazin-1-yl)methyl)-[1,1′-biphenyl]-4-yl)methoxy)cyclopentyl)-nicotinamide], for which the GI50 was below 100 nM.

With `CN1CCN(Cc2ccc(-c3ccc(CO[C@H]4CCC[C@@H]4NC(=O)c4cc(-c5cnn(C)c5)cnc4N)cc3)cc2O)CC1` [Example 199, 2-amino-N-((1S,2S)-2-((3′-hydroxy-4′-((4-methylpiperazin-1-yl)methyl)-[1,1′-biphenyl]-4-yl)methoxy)cyclopentyl)-5-(1-methyl-1H-pyrazol-4-yl)nicotinamide], the GI50 was below 100 nM.

`Cn1cc(-c2cnc(N)c(C(=O)N[C@H]3CCC[C@@H]3OCc3ccc(-c4ccc(CN5CCN(CCO)CC5)c(C(F)(F)F)c4)cc3)c2)cn1` [Example 205, 2-amino-N-((1S,2S)-2-((4′-((4-(2-hydroxyethyl)piperazin-1-yl)methyl)-3′-(trifluoromethyl)-[1,1′-biphenyl]-4-yl)methoxy)cyclopentyl)-5-(1-methyl-1H-pyrazol-4-yl)nicotinamide]: the GI50 was below 100 nM.

As for `CC(c1ccc(-c2ccc(CO[C@H]3CCC[C@@H]3NC(=O)c3cc(-c4cnn(C)c4)cnc3N)cc2)cc1)N1CCN(C)CC1` (stereo partly drawn) [Example 208, 2-amino-5-(1-methyl-1H-pyrazol-4-yl)-N-((1S,2S)-2-((4′-(1-(4-methylpiperazin-1-yl)ethyl)-[1,1′-biphenyl]-4-yl)methoxy)cyclopentyl)nicotinamide], the GI50 was below 100 nM.

As to `CC(c1ccc(-c2ccc(CO[C@H]3CCC[C@@H]3NC(=O)c3cc(-c4cnn(C)c4)cnc3N)cc2)cc1)N1C[C@@H](C)N(C)[C@@H](C)C1` (stereo partly drawn) [Example 209, 2-amino-5-(1-methyl-1H-pyrazol-4-yl)-N-((1S,2S)-2-((4′-(1-((3S,5R)-3,4,5-trimethylpiperazin-1-yl)ethyl)-[1,1′-biphenyl]-4-yl)methoxy)-cyclopentyl)nicotinamide], the GI50 was below 100 nM.

In the case of `CC(c1ccc(-c2ccc(CO[C@H]3CCC[C@@H]3NC(=O)c3cc(-c4cnn(C)c4)cnc3N)cc2)cc1)N1C[C@@H](C)N(CCO)[C@@H](C)C1` (stereo partly drawn) [Example 211, 2-amino-N-((1S,2S)-2-((4′-(1-((3S,5R)-4-(2-hydroxyethyl)-3,5-dimethylpiperazin-1-yl)ethyl)-[1,1′-biphenyl]-4-yl)methoxy)cyclopentyl)-5-(1-methyl-1H-pyrazol-4-yl)nicotinamide], the 50% growth inhibitory concentration (GI50) is below 100 nM.
